Here are results for four compounds from patent publication US6500936B2, “Pluraflavins and derivatives thereof, process for their preparation and use thereof” (priority 2000, dated 2002).

Several values for one entry are separate records, joined by “and”; a condition that tells them apart may be missing. Equal entries are not always repeated. Where two headings read alike, the source gives them in different places.

The nature of data set [1]: Chemical stability by medium / pH.
Data set [2] is described as follows: Solubility (appearance description).
Data set [3] has as its system rat hepatoma cells ATCC CRL-1548. The experiment in a line: Cytostatic activity on rat hepatoma cells (Cell Titer 96 Aqueous). The format is cell-based. The conditions noted are these: read-out: IC50 (cytostatic effect). As to the method: (a) To determine the cytostatic activity, rat hepatoma cells were used which were obtained from the strain collection American Type Culture Collection under the number ATCC CRL-1548, Jo No.223 and 228 The strain was kept in the “MEM (EAGLE) with Glutamax” medium [GIBCO BRL No.4109-028] with 10% fetal calf serum [GIBCO BRL No. 10270-106] and 10 μl of penicillin-streptomycin [GIBCO BRL No. 15140-114]/ml. 96-well microtiterplates [Greiner, No. 15140-114] were used. Each well was initially charged with 140 μl of culturing nutrient solution and in each case inoculated with 215,000 cells. The plates were then incubated at 37° C. and 5% CO2 for 20-24 hours. A dilution series of pluraflavins with concentrations of 100, 50, 25, 12.5, 6.25, 3.125, 1.5625, 0.7813, 0.3906, 0.195, 0.094, 0.047 and 0 μM, which had been prepared beforehand, was then pipetted in the corresponding order. After a further incubation time of 22 hours at 37° C. in an atmosphere of 5% CO2, the liquid medium was then aspirated. The cells that remained were stained with 100 μl of RPMI 1640 [GIBCO BRL No. 32404-014]/well and 20 μl of Cell Titer 96 Aqueous [PROMEGA No. G5430]/well. Light absorption at 590 nm was measured directly after addition and after 2 hours of incubation, as above. The cytostatic effect was calculated from the change in light absorption.

The test system of data set [4] is Breast tumor cell line. Kind of data set: MTT antiproliferation assay, breast tumor cells. In kind it is cell-based. The text has this: (§1) MTT, a water soluble tetrazolium salt, is converted to an insoluble purple formazan when dissolved by cleavage of the tetrazolium ring by dehydrogenase enzymes in active mitochondria. […] This method was used to quantitate proliferation in order to determine activity of potential chemotherapeutic compounds.
(§2) All cells were maintained in RPMI 1640 (Life Technologies, Gaithersburg, Mdi) containing 10% heat-inactivated Fetal Bovine Serum, penicillin /streptomycin and supplemented with L-glutamine.
(§3) Cells were plated in 96-well tissue culture plates at the following densities:
(§4) Cells were allowed to adhere overnight at 37° C., 5% CO2.
(§5) The cells were washed with fresh media and the compounds added to the cells in a final volume of 100 μl. The cells plus compound were allowed to incubate at 37° C., 5% CO2 for approximately 72 hours.
(§6) At the desired time point, 25 μl of MTT (10 mg/ml in HBSS) were added to each well. Plates were incubated at 37° C. for 2-4 hours. MTT and media were removed and 200 μl DMSO were added per well. Readings were taken at 570 nm.

Data set [5] deals with Prostate tumor cell line. Kind of data set: MTT antiproliferation assay, prostate tumor cells. The format is cell-based.
Description: as §1, §2, §3, §4, §5, §6

In data set [6] the test system is Colon tumor cell line. Kind of data set: MTT antiproliferation assay, colon tumor cells. In kind it is cell-based.
Description: as §1, §2, §3, §4, §5, §6
A general note: Tetrazolium dyes change colour on reduction, which living cells bring about.

For data set [7], the system named is Lung tumor cell line. The experiment in a line: MTT antiproliferation assay, lung tumor cells. The format is cell-based.
Description: as §1, §2, §3, §4, §5, §6

For data set [8], the system named is leukemia cells. Kind of data set: Soft agar assay against leukemia cells. In kind it is cell-based.

`CC1OC(OC2C(C)OC(c3ccc4c(c3O)C(=O)c3c(cc(C(=O)O)c5c(=O)cc(C(C)(O)C(C)O)oc35)C4=O)CC2N(C)C)CC(O)C1O` (stereo not drawn) [pluraflavin E]: in data set [1], the “stability in the alkaline range” value was “unstable”; the “stability in neutral and mildly acidic medium” value is “stable”; the “stability in the strongly acidic range” value is “unstable”. Further, in data set [2], the “solubility in polar organic solvents” value is reported as “soluble” and the solubility in water result is listed as “only sparingly soluble”.
Consider `CC1OC(OC2C(C)OC(c3ccc4c(c3O)C(=O)c3c(cc(COC5CC(C)(N)C(O)C(C)O5)c5c(=O)cc(C6(C)OC6C)oc35)C4=O)CC2N(C)C)CC(O)C1O` (stereo not drawn) [pluraflavin A], for which the IC50 is less than 50 nM in data set [3] (Rattus norvegicus, 22 h); less than 23 nM in data set [4] (72 h); 10 nM in data set [5] (72 h); 0.35 nM in data set [6] (72 h); 3 nM in data set [7] (72 h); 60 nM in data set [8]. In addition, the “stability in the alkaline range” value in data set [1] is on record as “unstable”. Moreover, in data set [1], the “stability in neutral and mildly acidic medium” value is on record as “stable”. In data set [1], the “stability in the strongly acidic range” value is on record as “unstable”.
For `CN1CC[C@H](c2c(O)cc(O)c3c(=O)cc(-c4ccccc4Cl)oc23)[C@H](O)C1` [flavopiridol, reference compound], the IC50 is 90 nM in data set [4] (Breast cells, MTT, approximately 72 hours, read-out: IC50); 80 nM in data set [5] (Prostate cells, MTT, approximately 72 hours, read-out: IC50); 30 nM in data set [6] (Colon cells, MTT, approximately 72 hours, read-out: IC50); 90 nM in data set [7] (Lung cells, MTT, approximately 72 hours, read-out: IC50); 500 nM and 600 nM in data set [8] (soft agar assay, leukemia cells, read-out: IC50).
As for `CC1OC(OC2C(C)OC(c3ccc4c(c3O)C(=O)c3c(cc(COC5CC(C)(N)C(O)C(C)O5)c5c(=O)cc(C(C)(O)C(C)O)oc35)C4=O)CC2N(C)C)CC(O)C1O` (stereo not drawn) [pluraflavin B], the IC50 in data set [3] (rat hepatoma cells, 22 hours incubation) was less than 50 nM. Besides, in data set [1], the “stability in the alkaline range” value is “unstable”; the “stability in neutral and mildly acidic medium” value is listed as “stable”. Besides, in data set [2], the “solubility in polar organic solvents” value was “soluble” and the solubility in water result is “only sparingly soluble”.

Usually IC50 stands for the concentration needed to halve the response being measured.
